For this assay, the system named is H1650 cells. In words: CellTiterGlo (CTG) cell viability, 3D, 120 h, H1650 (Example 8). Type of assay: cell-based, human. Conditions: Homo sapiens, NCI-H1650, H1650 3D. As to the method: H1650 cells were cultivated in RPMI supplemented with 10% heat inactivated fetal bovine serum, penicillin (100 IU/ml), streptomycin (100 μg/ml) and L-glutamine (2 mM). Cell lines were cultured at 37° C. in a humidified atmosphere containing 5% 002. Cells were seeded in 96 microwell round bottom plates (96 microwell Low attachment plates , Costar reference 7007) and exposed to the payloads or ADCs for 120 h (serially diluted; 9 concentrations each, duplicates). Effects of payloads or ADCs on cell viability were assessed after 5 days of incubation at 37° C./5% CO2 by quantification of cellular ATP levels using CellTiterGlo at 75 μL reagent/well. All the conditions were tested in duplicates. Luminescence was quantified on a multipurpose plate reader. IC50S were calculated using standard four-parametric curve fitting. […] Each experiment was performed at least twice, with results being reproducible.
A general note: Cellular ATP, detected with luciferase, serves as a proxy for viable cell number.

Setting [1] is: experiment n1, read-out: H1650 3D CTG IC50 n1.
Where [2] appears, read: experiment n2, read-out: H1650 3D CTG IC50 n2.
[3] abbreviates: mean of n1 and n2, read-out: H1650 3D CTG IC50 Mean of n1 and n2.

SMILES strings stand for the structures. Where two headings read alike, the source gives them in different places.

The IC50 is the midpoint of a concentration-inhibition curve. For the molecule `Cc1c(Nc2nc3ccccc3s2)nnc2c1CCCN2c1ccc(-c2cnn(C[C@]34C[C@]5(C)C[C@](C)(C3)C[C@@](OCCN3CCNCC3)(C5)C4)c2C)c(C(=O)O)n1` [P31, 6-[3-(1,3-benzothiazol-2-ylamino)-4-methyl-6,7-dihydro-5H-pyrido[2,3-c]pyridazin-8-yl]-3-[1-[[3,5-dimethyl-7-(2-piperazin-1-ylethoxy)-1-adamantyl]methyl]-5-methyl-pyrazol-4-yl]pyridine-2-carboxylic acid], the IC50 is, setting by setting: under setting [1], 0.57 nM; under setting [2], 1.4 nM; under setting [3], 0.99 nM.

Take `Cc1c(Nc2nc3ccccc3s2)nnc2c1CCCN2c1ccc(-c2cnn(C[C@]34C[C@]5(C)C[C@](C)(C3)C[C@@](OCCN3CCN(C(C)C)CC3)(C5)C4)c2C)c(C(=O)O)n1` [P32, 6-[3-(1,3-benzothiazol-2-ylamino)-4-methyl-6,7-dihydro-5H-pyrido[2,3-c]pyridazin-8-yl]-3-[1-[[3-[2-(4-isopropylpiperazin-1-yl)ethoxy]-5,7-dimethyl-1-adamantyl]methyl]-5-methyl-pyrazol-4-yl]pyridine-2-carboxylic acid]: the IC50 was found to be 0.24 nM under setting [1], 0.22 nM under setting [2] and 0.23 nM under setting [3].

Consider `Cc1c(Nc2nc3ccccc3s2)nnc2c1CCCN2c1nc(C(=O)O)c(CCCOc2ccc(C#CCN(C)CC[C@H](O)CO)cc2F)s1` [P34, 2-[3-(1,3-benzothiazol-2-ylamino)-4-methyl-6,7-dihydro-5H-pyrido[2,3-c]pyridazin-8-yl]-5-[3-[4-[3-[[(3S)-3,4-dihydroxybutyl]-methyl-amino]prop-1-ynyl]-2-fluoro-phenoxy]propyl]thiazole-4-carboxylic acid], for which the IC50 runs as follows: under setting [1], 0.65 nM; under setting [2], 0.87 nM; under setting [3], 0.76 nM.

For the molecule `Cc1c(Nc2nc3ccccc3s2)nnc2c1CCCN2c1ccc(-c2cnn(C[C@]34C[C@]5(C)C[C@](C)(C3)C[C@@](OCCN(C)CCO)(C5)C4)c2C)c(C(=O)O)n1` [P35, 6-[3-(1,3-benzothiazol-2-ylamino)-4-methyl-6,7-dihydro-5H-pyrido[2,3-c]pyridazin-8-yl]-3-[1-[[3-[2-[2-hydroxyethyl(methyl)amino]ethoxy]-5,7-dimethyl-1-adamantyl]methyl]-5-methyl-pyrazol-4-yl]pyridine-2-carboxylic acid], the IC50 came out at 0.23 nM under setting [1], 0.27 nM under setting [2] and 0.25 nM under setting [3].

With `COCCCN(C)CCOC12CC3(C)CC(C)(CC(Cn4ncc(-c5ccc(N6CCCc7c6nnc(Nc6nc8ccccc8s6)c7C)nc5C(=O)O)c4C)(C3)C1)C2` [P36, 6-[3-(1,3-benzothiazol-2-ylamino)-4-methyl-6,7-dihydro-5H-pyrido[2,3-c]pyridazin-8-yl]-3-[1-[[3-[2-[3-methoxypropyl(methyl)amino]ethoxy]-5,7-dimethyl-1-adamantyl]methyl]-5-methyl-pyrazol-4-yl]pyridine-2-carboxylic acid], the IC50 under setting [1] amounted to 0.26 nM, the IC50 under setting [2] stood at 0.31 nM and the IC50 under setting [3] was determined as 0.29 nM.

With `Cc1c(Nc2nc3ccccc3s2)nnc2c1CCCN2c1ccc(-c2cnn(C[C@]34C[C@]5(C)C[C@](C)(C3)C[C@@](OCCN(C)CCCCO)(C5)C4)c2C)c(C(=O)O)n1` [P37, 6-[3-(1,3-benzothiazol-2-ylamino)-4-methyl-6,7-dihydro-5H-pyrido[2,3-c]pyridazin-8-yl]-3-[1-[[3-[2-[4-hydroxybutyl(methyl)amino]ethoxy]-5,7-dimethyl-1-adamantyl]methyl]-5-methyl-pyrazol-4-yl]pyridine-2-carboxylic acid], the IC50 under setting [1] stood at 0.4 nM, the IC50 under setting [2] is 1.2 nM and the IC50 under setting [3] is 0.8 nM.

In the case of `Cc1c(Nc2nc3ccccc3s2)nnc2c1CCCN2c1ccc(-c2cnn(CC34CC5(C)CC(C)(C3)CC(OCCN3CCCCC3)(C5)C4)c2C)c(C(=O)O)n1` [P38, 6-[3-(1,3-benzothiazol-2-ylamino)-4-methyl-6,7-dihydro-5H-pyrido[2,3-c]pyridazin-8-yl]-3-[1-[[3,5-dimethyl-7-[2-(1-piperidyl)ethoxy]-1-adamantyl]methyl]-5-methyl-pyrazol-4-yl]pyridine-2-carboxylic acid], the IC50 by setting is: under setting [1], 0.19 nM; under setting [2], 0.33 nM; under setting [3], 0.26 nM.

In the case of `Cc1c(Nc2nc3ccccc3s2)nnc2c1CCCN2c1ccc(-c2cnn(C[C@]34C[C@]5(C)C[C@](C)(C3)C[C@@](OCCN3CCOCC3)(C5)C4)c2C)c(C(=O)O)n1` [P39, 6-[3-(1,3-benzothiazol-2-ylamino)-4-methyl-6,7-dihydro-5H-pyrido[2,3-c]pyridazin-8-yl]-3-[1-[[3,5-dimethyl-7-(2-morpholinoethoxy)-1-adamantyl]methyl]-5-methyl-pyrazol-4-yl]pyridine-2-carboxylic acid], the IC50 by setting is: under setting [1], 0.21 nM; under setting [2], 0.34 nM; under setting [3], 0.28 nM.

As to `Cc1c(Nc2nc3ccccc3s2)nnc2c1CCCN2c1ccc(-c2cnn(C[C@]34C[C@@]5(C)C[C@](C)(C[C@](CCCN6CCCC6)(C5)C3)C4)c2C)c(C(=O)O)n1` [P41, 6-[3-(1,3-benzothiazol-2-ylamino)-4-methyl-6,7-dihydro-5H-pyrido[2,3-c]pyridazin-8-yl]-3-[1-[[3,5-dimethyl-7-(3-pyrrolidin-1-ylpropyl)-1-adamantyl]methyl]-5-methyl-pyrazol-4-yl]pyridine-2-carboxylic acid], the IC50 stood at 3.3 nM under setting [1], 2.1 nM under setting [2] and 2.7 nM under setting [3].

Take `Cc1ccc2sc(Nc3nnc4c(c3C)CCCN4c3ccc(-c4cnn(C[C@]56C[C@]7(C)C[C@](C)(C5)C[C@@](OCCN5CCCC5)(C7)C6)c4C)c(C(=O)O)n3)nc2c1` [P42, 3-[1-[[3,5-dimethyl-7-(2-pyrrolidin-1-ylethoxy)-1-adamantyl]methyl]-5-methyl-pyrazol-4-yl]-6-[4-methyl-3-[(5-methyl-1,3-benzothiazol-2-yl)amino]-6,7-dihydro-5H-pyrido[2,3-c]pyridazin-8-yl]pyridine-2-carboxylic acid]: the IC50 by setting is: under setting [1], 9.4 nM; under setting [2], 12.9 nM; under setting [3], 11.2 nM.

Consider `COc1ccc2sc(Nc3nnc4c(c3C)CCCN4c3ccc(-c4cnn(C[C@]56C[C@]7(C)C[C@](C)(C5)C[C@@](OCCN5CCCC5)(C7)C6)c4C)c(C(=O)O)n3)nc2c1` [P43, 3-[1-[[3,5-dimethyl-7-(2-pyrrolidin-1-ylethoxy)-1-adamantyl]methyl]-5-methyl-pyrazol-4-yl]-6-[3-[(5-methoxy-1,3-benzothiazol-2-yl)amino]-4-methyl-6,7-dihydro-5H-pyrido[2,3-c]pyridazin-8-yl]pyridine-2-carboxylic acid], for which the IC50 reads like this: under setting [1], 0.53 nM; under setting [2], 0.5 nM; under setting [3], 0.52 nM.

Take `Cc1c(Nc2nc3ccccc3s2)nnc2c1CCCN2c1ccc(-c2cnn(CC34CC5(C)CC(C)(C3)CC(OCCNCC(=O)O)(C5)C4)c2C)c(C(=O)O)n1` [P47, 6-[3-(1,3-benzothiazol-2-ylamino)-4-methyl-6,7-dihydro-5H-pyrido[2,3-c]pyridazin-8-yl]-3-[1-[[3-[2-(carboxymethylamino)ethoxy]-5,7-dimethyl-1-adamantyl]methyl]-5-methyl-pyrazol-4-yl]pyridine-2-carboxylic acid]: the half-maximal inhibitory concentration (IC50) by setting is: under setting [1], 6.54 nM; under setting [2], 7.35 nM; under setting [3], 6.95 nM.

Turning to `Cc1c(Nc2nc3ccccc3s2)nnc2c1CCCN2c1ccc(-c2cnn(CC34CC5(C)CC(C)(C3)CC(OCCN(C)CC(=O)O)(C5)C4)c2C)c(C(=O)O)n1` [P48, 6-[3-(1,3-benzothiazol-2-ylamino)-4-methyl-6,7-dihydro-5H-pyrido[2,3-c]pyridazin-8-yl]-3-[1-[[3-[2-[carboxymethyl(methyl)amino]ethoxy]-5,7-dimethyl-1-adamantyl]methyl]-5-methyl-pyrazol-4-yl]pyridine-2-carboxylic acid], the IC50 reads like this: under setting [1], 2.27 nM; under setting [2], 2.79 nM; under setting [3], 2.53 nM.

With `Cc1c(Nc2nc3ccccc3s2)nnc2c1CCCN2c1ccc(-c2cnn(CC34CC5(C)CC(C)(CC(CCCN(C)CCO)(C5)C3)C4)c2C)c(C(=O)O)n1` [P49, 6-[3-(1,3-benzothiazol-2-ylamino)-4-methyl-6,7-dihydro-5H-pyrido[2,3-c]pyridazin-8-yl]-3-[1-[[3-[3-[2-hydroxyethyl(methyl)amino]propyl]-5,7-dimethyl-1-adamantyl]methyl]-5-methyl-pyrazol-4-yl]pyridine-2-carboxylic acid], the IC50 reads like this: under setting [1], 1.3 nM; under setting [2], 1.12 nM; under setting [3], 1.21 nM.

For `COCCCN(C)CCCC12CC3(C)CC(C)(C1)CC(Cn1ncc(-c4ccc(N5CCCc6c5nnc(Nc5nc7ccccc7s5)c6C)nc4C(=O)O)c1C)(C3)C2` [P50, 6-[3-(1,3-benzothiazol-2-ylamino)-4-methyl-6,7-dihydro-5H-pyrido[2,3-c]pyridazin-8-yl]-3-[1-[[3-[3-[3-methoxypropyl(methyl)amino]propyl]-5,7-dimethyl-1-adamantyl]methyl]-5-methyl-pyrazol-4-yl]pyridine-2-carboxylic acid], the IC50 came to 0.55 nM under setting [1], 0.21 nM under setting [2] and 0.38 nM under setting [3].

Source of the values: patent US20240269304A1, “BCL-XL INHIBITOR ANTIBODY-DRUG CONJUGATES AND METHODS OF USE THEREOF” (Novartis AG, priority 2020, published 2024).
